A short description of data set [1]: Inhibition of HIF-1 in human HeLa cells transfected with CMV driven renilla luciferase reporter gene incubated for 1 hr under normoxic condition and 12 hrs under hypoxia condition by HRE-based dual luciferase reporter gene assay. Type of data set: cell-based.
A short description of data set [2]: Cytotoxicity against human HeLa cells assessed as growth inhibition incubated for 60 hrs under normoxic condition by MTT assay. Format: cell-based.

This note sets out measurements from ChEMBL document CHEMBL4433258, “Structure-activity relationships study of neolamellarin A and its analogues as hypoxia inducible factor-1 (HIF-1) inhibitors” (Bioorg Med Chem Lett, 2019).

The term IC50 denotes the concentration needed to halve the response being measured. Low readings indicate higher potency, high ones lower potency. What is called GI50 is the concentration giving 50% growth inhibition. Turning to `COc1ccc(-c2cn(C(=O)c3ccccc3)cc2-c2ccc(OC)cc2)cc1`, in data set [1], the IC50 came out at 14.6 µM. Also, the GI50 at 60 h in data set [2] is more than 100 µM.
Regarding `COc1ccc(CCC(=O)n2cc(-c3ccc(OC)cc3)c(-c3ccc(OC)cc3)c2)cc1`, the midpoint of inhibition in data set [1], the IC50, lay at 26.8 µM. In data set [2], the GI50 at 60 h is more than 100 µM.
Molecule `O=C(c1ccccc1)n1cc(-c2ccc(O)cc2)c(-c2ccc(O)cc2)c1` gave an IC50 in data set [1] of 16.8 µM. In data set [2], the GI50 at 60 h was 32.9 µM.
`O=C(c1ccccc1)n1cc(-c2ccccc2)c(-c2ccccc2)c1` yielded an IC50 in data set [1] of 16 µM. Also, the GI50 at 60 h in data set [2] worked out at 67.1 µM.
In data set [1], `COc1ccc(C(=O)n2cc(-c3ccc(OC)cc3)c(-c3ccc(OC)cc3)c2)cc1` registered an IC50 of 24.4 µM. The GI50 at 60 h in data set [2] was more than 100 µM.
The corresponding values for `COc1ccc(-c2cn(C(=O)C(OC)c3ccc(OC)cc3)cc2-c2ccc(OC)cc2)cc1` (stereo unspecified) are more than 50 µM and more than 100 µM.
Taken in the same sequence, the figures for `O=C(CCc1ccc(O)cc1)n1cc(-c2ccc(O)cc2)c(-c2ccc(O)cc2)c1` were 14.7 µM and 51.5 µM.
With `COc1ccc(/C=C/C(=O)n2cc(-c3ccc(OC)cc3)c(-c3ccc(OC)cc3)c2)cc1`, in data set [1], the IC50 was more than 100 µM. The GI50 at 60 h in data set [2] was more than 100 µM.
On to `COc1ccc(CC(=O)n2cc(-c3ccc(OC)cc3)c(-c3ccc(OC)cc3)c2)cc1`, for which the IC50 in data set [1] turned out to be 22.5 µM. Moreover, in data set [2], the 50% growth inhibitory concentration (GI50) at 60 h is more than 100 µM.
In data set [1], `O=C(c1ccc(O)cc1)n1cc(-c2ccc(O)cc2)c(-c2ccc(O)cc2)c1` gave an IC50 of 18.8 µM. The GI50 at 60 h in data set [2] worked out at 76 µM.
For the molecule `COc1ccc(-c2cn(C(=O)C(O)c3ccc(OC)cc3)cc2-c2ccc(OC)cc2)cc1` (stereo unspecified), the IC50 in data set [1] was 11.9 µM. Further, the GI50 at 60 h in data set [2] was 44.2 µM.
Taken in the same sequence, the figures for `O=C(/C=C/c1ccc(O)cc1)n1cc(-c2ccc(O)cc2)c(-c2ccc(O)cc2)c1` were 16.6 µM and 27.3 µM.
With `O=C(Cc1ccc(O)cc1)n1cc(-c2ccc(O)cc2)c(-c2ccc(O)cc2)c1` [NEOLAMELLARIN A], inhibition in data set [1] was half-maximal at 10.8 µM (IC50). For the same molecule, the GI50 at 60 h in data set [2] was found to be 59.5 µM.
